Biological target: S. pneumoniae Topoisomerase IV ATPase (ParE) (Streptococcus pneumoniae serotype 4, UniProt Q59961)
Assay: S. pneumoniae Topoisomerase IV ATPase inhibition
Format: biochemical
Conditions: values marked * are an average of two or more data points, read-out: % Inh (13 μM) of S. pneumoniae Topoisomerase IV ATPase
How it was run: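 Malachite green/ammonium molybdate phosphate detection, A650. 1.25 nM ParE, 160 μM ATP, sheared salmon sperm DNA 5 μg/ml, 20 mM Tris pH 8.0, 8.0 mM MgCl2. Controls: 2% DMSO = 0%, 20 μM EDTA = 100% inhibition; IC50 over 10 concentrations.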

Chain of S. pneumoniae Topoisomerase IV ATPase (ParE) (Q59961 whole entry): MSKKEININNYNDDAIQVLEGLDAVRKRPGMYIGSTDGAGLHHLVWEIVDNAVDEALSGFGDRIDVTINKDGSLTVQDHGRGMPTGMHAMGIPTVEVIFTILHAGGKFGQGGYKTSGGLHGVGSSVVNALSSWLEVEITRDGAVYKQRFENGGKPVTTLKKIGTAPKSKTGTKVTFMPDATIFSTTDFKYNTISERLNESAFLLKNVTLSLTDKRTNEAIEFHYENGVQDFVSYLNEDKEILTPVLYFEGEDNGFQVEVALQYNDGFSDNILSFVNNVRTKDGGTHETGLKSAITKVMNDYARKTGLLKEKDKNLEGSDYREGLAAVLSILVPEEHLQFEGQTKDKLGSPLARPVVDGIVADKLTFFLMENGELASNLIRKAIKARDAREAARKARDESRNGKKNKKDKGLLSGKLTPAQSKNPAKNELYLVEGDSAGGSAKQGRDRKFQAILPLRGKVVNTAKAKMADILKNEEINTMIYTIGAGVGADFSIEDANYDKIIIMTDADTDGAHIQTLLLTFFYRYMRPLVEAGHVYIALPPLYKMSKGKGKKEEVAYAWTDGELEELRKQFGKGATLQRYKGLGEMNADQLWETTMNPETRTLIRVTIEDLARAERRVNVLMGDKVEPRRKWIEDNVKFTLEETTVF

Compound | inhibition at 13 µM [%]
COc1cc(Nc2ncc(-c3cnc(OCCCS(C)(=O)=O)c(C(=O)NS(=O)(=O)C(F)(F)F)c3)c(-n3ccc(C(F)(F)F)n3)n2)cc(OC)c1 [Example 972, 5-(2-(3,5-dimethoxyphenylamino)-4-(3-(trifluoromethyl)-1H-pyrazol-1-yl)pyrimidin-5-yl)-2-(3-(methylsulfonyl)propoxy)-N-(trifluoromethylsulfonyl)nicotinamide] | 100
COc1cc(Nc2ncc(-c3cnc(OC)c(-c4noc(=S)[nH]4)c3)c(-n3nc(C(F)(F)F)cc3C)n2)cc(OC)c1 [Example 974, 3-(5-(2-(3,5-dimethoxyphenylamino)-4-(5-methyl-3-(trifluoromethyl)-1H-pyrazol-1-yl)pyrimidin-5-yl)-2-methoxypyridin-3-yl)-1,2,4-oxadiazol-5(4H)-thione] | 89
COc1cc(Nc2ncc(-c3cnc(OC)c(-c4noc(=O)[nH]4)c3)c(-n3nc(C(F)(F)F)cc3C)n2)cc(OC)c1 [Example 975, 3-(5-(2-(3,5-dimethoxyphenylamino)-4-(5-methyl-3-(trifluoromethyl)-1H-pyrazol-1-yl)pyrimidin-5-yl)-2-methoxypyridin-3-yl)-1,2,4-oxadiazol-5(4H)-one] | 100
CCOC(=O)/C=C/c1cccc(-c2cnc(Nc3ccc(F)c(Cl)c3)nc2N2CCOC(CO)C2)c1 (stereo not drawn) [Example 977, (E)-ethyl 3-(3-(2-(3-chloro-4-fluorophenylamino)-4-(2-(hydroxymethyl)morpholino)pyrimidin-5-yl)phenyl)acrylate] | 74
CCOC(=O)c1cncc(-c2cnc(Nc3ccc(F)c(Cl)c3)nc2N2CCOC(CO)C2)c1 (stereo not drawn) [Example 978, Ethyl 5-(2-(3-chloro-4-fluorophenylamino)-4-(2-(hydroxymethyl)morpholino)pyrimidin-5-yl)nicotinate] | 82
CC(=O)N1CCN(c2nc(Nc3ccc(F)c(Cl)c3)ncc2-c2ccc(C(=O)O)s2)CC1 [Example 982, 5-(4-(4-Acetylpiperazin-1-yl)-2-(3-chloro-4-fluorophenylamino)pyrimidin-5-yl)thiophene-2-carboxylic acid] | 100
COCCCNc1nc(Nc2ccc(F)c(Cl)c2)ncc1-c1cncc(S(C)(=O)=O)c1 [Example 987, N2-(3-chloro-4-fluorophenyl)-N4-(3-methoxypropyl)-5-(5-(methylsulfonyl)pyridin-3-yl)pyrimidine-2,4-diamine] | 30
CS(=O)(=O)c1cncc(-c2cnc(Nc3ccc(F)c(Cl)c3)nc2N2CCOCC2)c1 [Example 988, N-(3-chloro-4-fluorophenyl)-5-(5-(methylsulfonyl)pyridin-3-yl)-4-morpholinopyrimidin-22-amine] | 69
Cc1cc(C(F)(F)F)nn1-c1nc(Nc2ccc(F)c(Cl)c2)ncc1-c1cncc(S(C)(=O)=O)c1 [Example 989, N-(3-chloro-4-fluorophenyl)-4-(5-methyl-3-(trifluoromethyl)-1H-pyrazol-1-yl)-5-(5-(methylsulfonyl)pyridin-3-yl)pyrimidin-2-amine] | 100
CS(=O)(=O)c1cncc(-c2cnc(Nc3ccc(F)c(Cl)c3)nc2-n2ccc(C(F)(F)F)n2)c1 [Example 990, N-(3-chloro-4-fluorophenyl)-5-(5-(methylsulfonyl)pyridin-3-yl)-4-(3-(trifluoromethyl)-1H-pyrazol-1-yl)pyrimidin-2-amine] | 100
CS(=O)(=O)CC(=O)c1cncc(-c2cnc(Nc3ccc(F)c(Cl)c3)nc2-n2ccc(C(F)(F)F)n2)c1 [Example 993, 1-(5-(2-(3-chloro-4-fluorophenylamino)-4-(3-(trifluoromethyl)-1H-pyrazol-1-yl)pyrimidin-5-yl)pyridin-3-yl)-2-(methylsulfonyl)ethanone] | 100
CCNS(=O)(=O)c1cccc(-c2cnc(Nc3ccc(F)c(Cl)c3)nc2-n2ccc(C(F)(F)F)n2)c1 [Example 995, 3-(2-(3-Chloro-4-fluorophenylamino)-4-(3-(trifluoromethyl)-1H-pyrazol-1-yl)pyrimidin-5-yl)-N-ethylbenzenesulfonamide] | 89
O=S(=O)(NCCO)c1cccc(-c2cnc(Nc3ccc(F)c(Cl)c3)nc2-n2ccc(C(F)(F)F)n2)c1 [Example 997, 3-(2-(3-Chloro-4-fluorophenylamino)-4-(3-(trifluoromethyl)-1H-pyrazol-1-yl)pyrimidin-5-yl)-N-(2-hydroxyethyl)benzenesulfonamide] | 100
CCNC(=O)NS(=O)(=O)c1cccc(-c2cnc(Nc3ccc(F)c(Cl)c3)nc2-n2ccc(C(F)(F)F)n2)c1 [Example 998, 3-(2-(3-Chloro-4-fluorophenylamino)-4-(3-(trifluoromethyl)-1H-pyrazol-1-yl)pyrimidin-5-yl)-N-(ethylcarbamoyl)benzenesulfonamide] | 100
CCNS(=O)(=O)c1cncc(-c2cnc(Nc3ccc(F)c(Cl)c3)nc2-n2ccc(C(F)(F)F)n2)c1 [Example 1000, 5-(2-(3-Chloro-4-fluorophenylamino)-4-(3-(trifluoromethyl)-1H-pyrazol-1-yl)pyrimidin-5-yl)-N-ethylpyridine-3-sulfonamide] | 64
CS(=O)(=O)NC(=O)c1cccc(-c2cnc(Nc3ccc(F)c(Cl)c3)nc2-n2ccc(C(F)(F)F)n2)c1 [Example 1002, 3-(2-(3-Chloro-4-fluorophenylamino)-4-(3-(trifluoromethyl)-1H-pyrazol-1-yl)pyrimidin-5-yl)-N-(methylsulfonyl)benzamide] | 100
COC(=O)c1cc(-c2cnc(Nc3ccc(F)c(Cl)c3)nc2-n2nc(C(F)(F)F)cc2C)cnc1OC [Example 1008, Methyl 5-(2-(3-chloro-4-fluorophenylamino)-4-(5-methyl-3-(trifluoromethyl)-1H-pyrazol-1-yl)pyrimidin-5-yl)-2-methoxynicotinate] | 83
O=C1NC(=O)c2cc(-c3cnc(Nc4ccc(F)c(Cl)c4)nc3-n3ccc(C(F)(F)F)n3)ccc21 [Example 1009, 5-(2-(3-Chloro-4-fluorophenylamino)-4-(3-(trifluoromethyl)-1H-pyrazol-1-yl)pyrimidin-5-yl)isoindole-1,3-dione] | 92
COC(=O)c1cc(-c2cnc(Nc3ccc(F)c(Cl)c3)nc2-n2ccc(C(F)(F)F)n2)cnc1OC [Example 1010, Methyl 5-(2-(3-chloro-4-fluorophenylamino)-4-(3-(trifluoromethyl)-1H-pyrazol-1-yl)pyrimidin-5-yl)-2-methoxynicotinate] | 81
CCS(=O)(=O)NC(=O)c1cc(-c2cnc(Nc3ccc(F)c(Cl)c3)nc2-n2ccc(C(F)(F)F)n2)cnc1OC [Example 1016, 5-(2-(3-Chloro-4-fluorophenylamino)-4-(3-(trifluoromethyl)-1H-pyrazol-1-yl)pyrimidin-5-yl)-N-(ethylsulfonyl)-2-methoxynicotinamide] | 94
CCS(=O)(=O)NC(=O)c1cc(-c2cnc(Nc3ccc(F)c(Cl)c3)nc2-n2nc(C(F)(F)F)cc2C)cnc1OC [Example 1017, 5-(2-(3-Chloro-4-fluorophenylamino)-4-(5-methyl-3-(trifluoromethyl)-1H-pyrazol-1-yl)pyrimidin-5-yl)-N-(ethylsulfonyl)-2-methoxynicotinamide] | 90

Reference: US20100137313A1 (ASTRAZENECA AB, priority 2008, published 2010)
